Calls of active or inactive are those of the source. How the calls were made is not given here.
Molecular target: Bcl-2-related protein A1 (Mus musculus) (UniProt Q07440)
Experiment: Bfl-1 counter-screen inhibitors, SAR follow-up, counter-screen for UBC13 polyubiquitination inhibitor project, biochemical, mouse Bfl-1 (AID 504685)
Conditions: Bfl-1 counterscreen for UBC13 inhibitors

| Structure (SMILES) | IC50 |
| --- | --- |
| Cc1cc(C)c2sc(N(CCCN(C)C)C(=O)c3ccc(S(=O)(=O)N(C)C4CCCCC4)cc3)nc2c1 | > 100 µM (inactive) |
| CC(C)(C)c1ccc(OCC(O)CN2CCN(CCN3C(=O)c4cccc5cccc(c45)C3=O)CC2)cc1 (stereo not given) | > 100 µM (inactive) |
| Cc1ccc2nc(N(CCCN(C)C)C(=O)c3ccc4c(c3)CCCC4)sc2c1 | > 100 µM (inactive) |
| O=C(C1COc2ccccc2O1)N1CCN(CCN2C(=O)c3cccc4cccc(c34)C2=O)CC1 (stereo not given) | > 100 µM (inactive) |
| Cc1ccc2c(c1)C1CN(C)CCC1N2C(=O)CCCN1C(=O)c2cccc3cccc(c23)C1=O (stereo not given) | > 100 µM (inactive) |
| COc1ccc(CCNC(=O)CCCCCN2C(=O)c3ccccc3C2=O)cc1 | > 100 µM (inactive) |
| O=C1c2cccc3cccc(c23)C(=O)N1CCN1CCN(CC(O)COc2ccc3c(c2)OCO3)CC1 (stereo not given) | > 100 µM (inactive) |
| Cc1c(NC(=O)CCCN2C(=O)c3cccc4cccc(c34)C2=O)c(=O)n(-c2ccccc2)n1C | > 100 µM (inactive) |
| O=C(CCCCCN1C(=O)c2ccccc2C1=O)Nc1ccc(S(=O)(=O)N2CCCCC2)cc1 | > 100 µM (inactive) |
| O=C(CCCCn1c(=O)c2ccccc2n(Cc2ccccc2)c1=O)NC1CCN(Cc2ccccc2)CC1 | > 100 µM (inactive) |
| O=C(CCCCCN1C(=O)c2ccccc2C1=O)N1CCN(c2ccc([N+](=O)[O-])cc2)CC1 | > 100 µM (inactive) |
| Cc1[nH]c2c(Cl)c(Cl)ccc2c1CCNC(=O)CCCCCN1C(=O)c2ccccc2C1=O | > 100 µM (inactive) |
| Cc1ccc2nc(N(CCCN(C)C)C(=O)c3ccc(S(=O)(=O)N4CCc5ccccc5C4)cc3)sc2c1 | > 100 µM (inactive) |
| O=C1c2cccc3cccc(c23)C(=O)N1CCN1CCN(CC(O)COc2ccc(Cl)cc2)CC1 (stereo not given) | > 100 µM (inactive) |
| O=C(Nc1ccc(F)c(Cl)c1)C1CCN(c2ncnc3c2nc2n3CCCCC2)CC1 | > 100 µM (inactive) |
| COc1ccc(OC)c2sc(N(CCCN(C)C)C(=O)c3ccc(S(=O)(=O)N4CCc5ccccc5C4)cc3)nc12 | 12 µM |
| O=C(CCCCCN1C(=O)c2ccccc2C1=O)NCCc1nc2ccccc2[nH]1 | > 100 µM (inactive) |
| CCOc1ccc2nc(N(CCCN(C)C)C(=O)c3ccc(S(=O)(=O)N4CCc5ccccc5C4)cc3)sc2c1 | > 100 µM (inactive) |
| CNCc1cc(Br)c(OCC(=O)Nc2ccccc2OC)c(OC)c1 | > 100 µM (inactive) |
| O=C1c2cccc3cccc(c23)C(=O)N1CC1CCN(CC(O)COc2ccc3ccccc3c2)CC1 (stereo not given) | 68.5 µM |
| Cc1cc(NS(=O)(=O)c2ccc(NC(=O)CCCCCN3C(=O)c4ccccc4C3=O)cc2)nc(C)n1 | > 100 µM (inactive) |
| Cc1cc(C)c2sc(N(CCCN(C)C)C(=O)c3ccc(S(=O)(=O)N(C)Cc4ccccc4)cc3)nc2c1 | > 100 µM (inactive) |
| CN(C)CCCN(C(=O)c1ccc(C(=O)c2ccccc2)cc1)c1nc2cc3c(cc2s1)OCCO3 | 85.3 µM |

| Structure (SMILES) | IC50 |
| --- | --- |
| Cc1cccc(C)c1NC(=O)Cn1c(=O)n(CCCC(=O)NC2CCN(Cc3ccccc3)CC2)c(=O)c2ccccc21 | > 100 µM (inactive) |
| CN(C)CCCN(C(=O)c1ccc(S(=O)(=O)N2CCCCC2)cc1)c1nc2cc3c(cc2s1)OCO3 | > 100 µM (inactive) |
| O=C(CCCn1c(=O)c2ccccc2n(Cc2cccc(F)c2)c1=O)NC1CCN(Cc2ccccc2)CC1 | > 100 µM (inactive) |
| CCc1ccc2nc(N(CCCN(C)C)C(=O)c3ccc(S(=O)(=O)N4CCc5ccccc5C4)cc3)sc2c1 | > 100 µM (inactive) |
| COc1ccc(C(=O)Nn2c(C)nc3ccccc3c2=O)cc1 | > 100 µM (inactive) |
| CC1CC(C)CN(C(=O)C2CCN(c3ncnc4c3nc3n4CCCCC3)CC2)C1 (stereo not given) | > 100 µM (inactive) |
| CN(C)CCCn1c(SCC(=O)Nc2nc(-c3cccc(Br)c3)cs2)nc2ccccc2c1=O | 16.9 µM |
| O=C(NCC1CCN(Cc2cccc(Cl)c2)CC1)C1CCCN(c2ncnc3c2nc2n3CCCCC2)C1 (stereo not given) | > 100 µM (inactive) |
| O=C(C1CCN(c2ncnc3c2nc2n3CCCCC2)CC1)N1CCN(c2ccccc2)CC1 | > 100 µM (inactive) |
| CC(=O)Nc1ccc(OCC(O)CN2CCN(CCN3C(=O)c4cccc5cccc(c45)C3=O)CC2)cc1 (stereo not given) | > 100 µM (inactive) |
| CCN(Cc1ccccc1)S(=O)(=O)c1ccc(C(=O)N(CCCN(C)C)c2nc3cc4c(cc3s2)OCCO4)cc1 | 84 µM |
| O=C1c2cccc3cccc(c23)N1Cc1ccc(F)cc1 | > 100 µM (inactive) |
| O=C(CCCCCN1C(=O)c2cccc3cccc(c23)C1=O)NCc1cccnc1 | > 100 µM (inactive) |
| CCCCN(CC)S(=O)(=O)c1ccc(C(=O)N(CCCN(C)C)c2nc3cc(C)cc(C)c3s2)cc1 | > 100 µM (inactive) |
| COC(=O)C1=C(NC(=O)CCCCCN2C(=O)c3ccccc3C2=O)SC2CCCC12 (stereo not given) | > 100 µM (inactive) |
| COc1cccc(OCC(O)CN2CCN(CCN3C(=O)c4cccc5cccc(c45)C3=O)CC2)c1 (stereo not given) | > 100 µM (inactive) |
| CN(CCNC(=O)C1CCN(c2ncnc3c2nc2n3CCCCC2)CC1)Cc1ccccc1 | > 100 µM (inactive) |
| O=C(NCC1CCN(Cc2ccc(Cl)cc2)CC1)C1CCCN(c2ncnc3c2nc2n3CCCCC2)C1 (stereo not given) | > 100 µM (inactive) |
| O=C(NCCCN1CCCCC1)C1CCN(c2ncnc3c2nc2n3CCCCC2)CC1 | > 100 µM (inactive) |
| CC1CN(S(=O)(=O)c2ccc(NC(=O)CCCCCN3C(=O)c4ccccc4C3=O)cc2)CC(C)O1 (stereo not given) | > 100 µM (inactive) |
| CCCOC(=O)c1ccc(NC(=O)CCCCCN2C(=O)c3ccccc3C2=O)cc1 | > 100 µM (inactive) |
| CN(C)CCCN(C(=O)c1ccc(S(=O)(=O)N2CCCCCC2)cc1)c1nc2cc3c(cc2s1)OCCO3 | > 100 µM (inactive) |
